Measurements reported in US20040077634A1, “Treatment of diseases characterized by excessive or insufficient cell death” (priority 2001, published 2004).

What was measured:
[1] = target: T1, apoptosome complex (Apaf-1 and caspase-9) (Homo sapiens, UniProt O14727+P55211); assay: Apoptosome formation: co-immunoprecipitation of Apaf-1 with caspase-9 in cell extract; type: binding; settings: 100 μM
T1 construct: Caspase-9 antibody precipitated practically all caspase-9 present in the cell extract; endogenous in cells; host or cells: cell extract
T1 sequence (O14727 1-1248): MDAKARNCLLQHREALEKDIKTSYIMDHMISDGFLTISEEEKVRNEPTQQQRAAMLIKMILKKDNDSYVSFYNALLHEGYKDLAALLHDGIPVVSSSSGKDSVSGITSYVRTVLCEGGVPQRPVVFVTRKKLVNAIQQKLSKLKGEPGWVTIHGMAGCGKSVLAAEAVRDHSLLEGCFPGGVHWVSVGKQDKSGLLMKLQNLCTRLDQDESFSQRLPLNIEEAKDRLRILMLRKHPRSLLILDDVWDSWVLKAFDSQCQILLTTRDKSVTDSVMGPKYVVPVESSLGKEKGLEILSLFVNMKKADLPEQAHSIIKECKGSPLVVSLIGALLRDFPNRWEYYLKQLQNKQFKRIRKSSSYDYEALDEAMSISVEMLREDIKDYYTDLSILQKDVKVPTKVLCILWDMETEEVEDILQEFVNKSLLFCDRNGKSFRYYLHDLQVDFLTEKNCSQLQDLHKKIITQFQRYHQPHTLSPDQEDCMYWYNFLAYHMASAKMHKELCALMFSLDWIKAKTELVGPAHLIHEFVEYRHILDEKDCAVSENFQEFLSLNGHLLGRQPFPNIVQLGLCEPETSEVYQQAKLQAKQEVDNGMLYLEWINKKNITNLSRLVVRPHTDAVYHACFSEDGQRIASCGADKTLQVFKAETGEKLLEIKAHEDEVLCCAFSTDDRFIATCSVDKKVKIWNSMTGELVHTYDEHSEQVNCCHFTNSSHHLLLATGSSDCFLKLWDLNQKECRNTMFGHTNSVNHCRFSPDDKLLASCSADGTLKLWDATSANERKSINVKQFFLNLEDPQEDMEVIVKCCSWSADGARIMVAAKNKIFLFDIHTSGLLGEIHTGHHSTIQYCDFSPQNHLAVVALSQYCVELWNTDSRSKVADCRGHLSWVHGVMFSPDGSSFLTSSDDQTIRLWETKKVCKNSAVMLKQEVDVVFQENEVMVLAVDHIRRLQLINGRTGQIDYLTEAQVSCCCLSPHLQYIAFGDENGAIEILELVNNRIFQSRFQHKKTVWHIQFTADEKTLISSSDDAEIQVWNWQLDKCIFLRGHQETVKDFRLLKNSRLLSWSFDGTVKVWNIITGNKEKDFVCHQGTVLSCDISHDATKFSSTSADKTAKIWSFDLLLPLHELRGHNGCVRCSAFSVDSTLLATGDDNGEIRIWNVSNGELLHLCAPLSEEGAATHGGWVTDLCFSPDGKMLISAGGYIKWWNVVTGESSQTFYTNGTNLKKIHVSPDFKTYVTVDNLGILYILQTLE
T1 sequence (P55211 1-416): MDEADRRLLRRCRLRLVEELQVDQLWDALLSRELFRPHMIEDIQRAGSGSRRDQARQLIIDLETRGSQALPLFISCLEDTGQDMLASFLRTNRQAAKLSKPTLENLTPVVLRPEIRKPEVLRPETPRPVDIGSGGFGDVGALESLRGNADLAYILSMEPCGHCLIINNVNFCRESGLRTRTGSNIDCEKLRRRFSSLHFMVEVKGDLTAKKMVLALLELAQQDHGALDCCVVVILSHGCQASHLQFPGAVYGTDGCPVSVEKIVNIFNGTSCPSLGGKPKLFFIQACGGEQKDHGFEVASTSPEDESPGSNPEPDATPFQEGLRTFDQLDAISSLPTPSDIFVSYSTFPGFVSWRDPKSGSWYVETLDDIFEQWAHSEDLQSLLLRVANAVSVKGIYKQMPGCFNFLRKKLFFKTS
Method: Next, it was tested whether compound f interferes with the formation of apoptosome complex in response to Cc/dATP. Cell extracts were incubated with Cc/dATP in the presence or absence of 100 μM compound f or 1 μM zVAD-fmk for 1 hour prior to the immunoprecipitation (IP) of caspase-9. […] Hsp90, which has been proposed to associate with Apaf-1 and prevent oligomerization and caspase-9 recruitment, was not co-immunoprecipitated with caspase-9.

recombinant caspase-3 = target: T2, recombinant caspase-3 (Homo sapiens, UniProt P42574); assay: Recombinant caspase-3 activity, cleavage of DEVD-AFC; type: biochemical; settings: 25 to 100 μM; DEVD-AFC substrate
T2 sequence (P42574 29-175 limits assumed): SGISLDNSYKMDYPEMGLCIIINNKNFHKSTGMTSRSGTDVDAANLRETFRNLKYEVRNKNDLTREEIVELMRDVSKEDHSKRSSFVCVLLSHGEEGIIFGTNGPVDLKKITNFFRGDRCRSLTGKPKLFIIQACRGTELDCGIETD
T2 sequence (P42574 176-277 limits assumed): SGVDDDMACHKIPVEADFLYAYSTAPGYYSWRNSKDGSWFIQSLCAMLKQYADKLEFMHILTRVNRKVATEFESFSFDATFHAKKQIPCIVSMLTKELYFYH
Method: To test if compounds a, f, and g were specific caspase inhibitors, recombinant caspase-3 and caspase-9 were incubated with the three compounds and the enzymatic activities of caspases were monitored by analysing the cleavage of the caspase-3 substrate DEVD-AFC or the caspase-9 substrate LEHD-AFC, respectively.

O=C(Nc1cccc(C(F)(F)F)c1)Nc1cc(Cl)ccc1C(=O)O [Compound f, [N-(2-Carboxy-5-chlorophenyl)-N′-(3-trifluoromethylphenyl)]urea]
ability of the caspase-9 antibody to precipitate caspase-9 [1]: no effect | co-immunoprecipitation of Apaf-1 and caspase-9 ([1]; 1 hour with Cc/dATP prior to IP of caspase-9): significantly inhibited | inhibition of recombinant caspase-3 activity (recombinant caspase-3): failed to inhibit
